Source: PMC10527105, “Chirality Matters: Fine-Tuning of Novel Monoamine Reuptake Inhibitors Selectivity through Manipulation of Stereochemistry” (Biomolecules, 2023)
Where two headings read alike, the source gives them in different places.

Tests used:
Assay type in all cases: cell-based
[1] = target: T1, human dopamine transporter/SLC6A3 (DAT) (Homo sapiens, UniProt Q01959); experiment: Cellular uptake experiments: [3H]-dopamine reuptake inhibition in transporter-expressing HEK293 cells; settings: for IC50: cells stably expressing DAT, [3H]-dopamine 1 µM, screening cut-off 50 µM
T1 construct: expressed in transfected cells; host or cells: HEK293
Protocol: (§1) Cell culture. Human embryonic kidney (HEK) 293 or SK-N-MC (human neuroblastoma) cells were grown in minimum essential medium with Earle’s salts and L-glutamine, 10% heat-inactivated fetal bovine serum, and 50 mg/L gentamicin. Cells were grown in 100- or 60-mm diameter tissue culture dishes (polystyrene, Falcon) at 37 °C under an atmosphere of 5% CO2/95% air. The human dopamine transporter/SLC6A3 (DAT), noradrenaline transporter/SLC6A2 (NET), or human serotonin transporter/SLC6A4 (SERT) cDNA was stably expressed using methods as described previously.
(§2) Cellular uptake experiments. The transporter-expressing HEK293 cells were seeded in poly-D-lysine-coated 24-well plates (1 × 10^5 cells/well) and, one day later, each well was washed with 0.5 mL uptake buffer and incubated with 0.5 mL buffer containing various concentrations of the drugs. Uptake was started by the addition of [^3H]-dopamine, [^3H]-noradrenaline, or [^3H]-serotonin at a final concentration of 1 µM (specific activity 0.14 Ci/mmol) after 5 min of preincubation. After incubation for 2.5 min (SERT-cells: 5 min) at 25 °C, it was stopped by aspirating the uptake buffer and washing each well twice with 1 mL ice-cold buffer. Nonspecific uptake was determined in the presence of 10 µM mazindol (DAT- and NET-cells) or 10 µM clomipramine (SERT-cells). The radioactivity remaining in each well was determined by incubating with 0.4 mL 1% sodium dodecyl sulphate and transferring this solution into scintillation vials containing 3 mL of scintillation cocktail (Ultima Gold MV, Packard, Dovners Grove, IL, USA). The uptake buffer consisted of (mmol/L): 4 Tris–HCl; 6.25 4-(2-hydroxyethyl)-1-piperazineethanesulfonic acid (HEPES); 120 NaCl; 5 KCl; 1.2 CaCl2; 1.2 MgSO4; 5.6 D-glucose; 0.5 ascorbic acid; pH 7.1.

[2] = target: T2, noradrenaline transporter/SLC6A2 (NET) (Homo sapiens, UniProt P23975); experiment: Cellular uptake experiments: [3H]-noradrenaline reuptake inhibition in transporter-expressing HEK293 cells
T2 construct: expressed in transfected cells; host or cells: HEK293
Protocol: as §1, §2

[3] = target: T3, human serotonin transporter/SLC6A4 (SERT) (Homo sapiens, UniProt P31645); experiment: Cellular uptake experiments: [3H]-serotonin reuptake inhibition in transporter-expressing HEK293 cells
T3 construct: expressed in transfected cells; host or cells: HEK293
Protocol: as §1, §2

[4] = Reuptake Inhibition (IC50 ± SE, µM) DAT
[5] = Reuptake Inhibition (IC50 ± SE, µM) NET, cells stably expressing NET, [3H]-noradrenaline 1 µM, screening cut-off 50 µM
[6] = at 50 µM / tested concentration range
[7] = Reuptake Inhibition (IC50 ± SE, µM) SERT, cells stably expressing SERT; [3H]-serotonin 1 µM; screening cut-off 50 µM
[8] = read-out: Reuptake Inhibition (IC50 ± SE, µM) NET, cells stably expressing NET, [3H]-noradrenaline 1 µM, screening cut-off 50 µM
[9] = read-out: Reuptake Inhibition (IC50 ± SE, µM) SERT; cells stably expressing SERT; [3H]-serotonin 1 µM; screening cut-off 50 µM
[10] = read-out: Reuptake Inhibition (IC50 ± SE, µM) DAT
[11] = cells stably expressing NET, [3H]-noradrenaline 1 µM, screening cut-off 50 µM, read-out: Reuptake Inhibition (IC50 ± SE, µM) NET
[12] = cells stably expressing SERT; [3H]-serotonin 1 µM; screening cut-off 50 µM; read-out: Reuptake Inhibition (IC50 ± SE, µM) SERT

T1 sequence (Q01959 whole entry): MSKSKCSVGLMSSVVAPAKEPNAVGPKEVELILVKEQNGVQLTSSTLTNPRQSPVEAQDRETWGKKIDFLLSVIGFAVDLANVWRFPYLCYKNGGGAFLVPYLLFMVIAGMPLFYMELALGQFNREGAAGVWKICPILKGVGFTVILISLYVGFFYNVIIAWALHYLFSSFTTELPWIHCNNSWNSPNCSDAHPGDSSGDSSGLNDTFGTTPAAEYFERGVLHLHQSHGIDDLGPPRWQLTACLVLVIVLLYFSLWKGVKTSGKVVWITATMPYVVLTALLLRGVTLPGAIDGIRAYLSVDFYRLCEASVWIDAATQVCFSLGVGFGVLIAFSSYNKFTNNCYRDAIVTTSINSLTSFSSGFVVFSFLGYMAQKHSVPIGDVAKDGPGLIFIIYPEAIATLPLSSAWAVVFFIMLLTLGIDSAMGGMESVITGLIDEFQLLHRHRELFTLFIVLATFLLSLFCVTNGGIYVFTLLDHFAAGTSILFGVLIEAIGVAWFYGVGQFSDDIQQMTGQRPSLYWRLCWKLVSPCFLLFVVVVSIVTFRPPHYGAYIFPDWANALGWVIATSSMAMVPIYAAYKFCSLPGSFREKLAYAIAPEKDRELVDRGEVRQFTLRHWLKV
T2 sequence (P23975 whole entry): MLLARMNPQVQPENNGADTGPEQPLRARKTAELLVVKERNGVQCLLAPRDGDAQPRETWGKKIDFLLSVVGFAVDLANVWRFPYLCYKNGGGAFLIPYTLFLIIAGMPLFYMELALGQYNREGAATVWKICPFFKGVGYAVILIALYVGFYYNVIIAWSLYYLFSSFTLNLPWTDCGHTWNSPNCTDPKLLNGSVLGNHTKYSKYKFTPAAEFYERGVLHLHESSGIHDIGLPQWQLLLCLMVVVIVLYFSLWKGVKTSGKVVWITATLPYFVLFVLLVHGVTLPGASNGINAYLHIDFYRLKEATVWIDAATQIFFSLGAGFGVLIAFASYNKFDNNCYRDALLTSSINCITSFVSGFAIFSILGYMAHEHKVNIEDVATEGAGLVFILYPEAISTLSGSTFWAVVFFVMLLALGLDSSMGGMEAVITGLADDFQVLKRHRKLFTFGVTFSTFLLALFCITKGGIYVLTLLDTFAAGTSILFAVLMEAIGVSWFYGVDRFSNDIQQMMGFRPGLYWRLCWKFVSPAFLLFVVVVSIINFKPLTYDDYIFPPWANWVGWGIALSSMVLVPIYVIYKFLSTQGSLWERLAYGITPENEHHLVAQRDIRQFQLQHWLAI
T3 sequence (P31645 whole entry): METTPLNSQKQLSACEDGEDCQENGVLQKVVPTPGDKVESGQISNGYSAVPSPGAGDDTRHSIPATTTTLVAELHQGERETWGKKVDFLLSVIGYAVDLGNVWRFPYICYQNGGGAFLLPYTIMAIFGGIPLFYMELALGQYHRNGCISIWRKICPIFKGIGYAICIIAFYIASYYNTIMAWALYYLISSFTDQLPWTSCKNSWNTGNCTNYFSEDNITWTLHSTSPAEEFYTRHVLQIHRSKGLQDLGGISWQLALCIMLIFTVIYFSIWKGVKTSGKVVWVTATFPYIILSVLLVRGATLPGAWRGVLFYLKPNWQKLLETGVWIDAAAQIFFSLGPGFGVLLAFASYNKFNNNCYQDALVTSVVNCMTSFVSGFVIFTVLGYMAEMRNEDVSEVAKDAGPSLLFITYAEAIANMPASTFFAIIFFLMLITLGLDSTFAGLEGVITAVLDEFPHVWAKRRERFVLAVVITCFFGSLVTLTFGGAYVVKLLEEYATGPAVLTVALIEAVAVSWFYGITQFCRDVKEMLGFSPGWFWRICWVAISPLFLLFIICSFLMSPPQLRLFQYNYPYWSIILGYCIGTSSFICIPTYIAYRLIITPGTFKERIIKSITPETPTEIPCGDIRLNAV

Compound | IC50 [1, 4] [µM] | IC50 [2, 5] [µM] | IC50 [3, 7] [µM] | further results
[O-][S+](Cc1cccs1)C(c1ccccc1)c1ccccc1Br (stereo not drawn) [Compound 5g, 2-((((2-bromophenyl)(phenyl)methyl)sulfinyl)methyl)thiophene] | > 50 | > 50 | > 50 | activity on DAT (reuptake inhibition), in words ([1]; at 50 µM): no effect; activity on NET (reuptake inhibition), in words [2, 6]: no effect; activity on SERT (reuptake inhibition), in words [3, 6]: no effect
[O-][S+](Cc1cccs1)C(c1ccc(F)cc1)c1ccc(Cl)cc1 (stereo not drawn) [Compound 6u, 2-((((4-chlorophenyl)(4-fluorophenyl)methyl)sulfinyl)methyl)thiophene] | 12 ± 2 | – | – | IC50 [2, 8]: > 50 µM; IC50 [3, 9]: > 50 µM
[O-][S+](Cc1cccs1)C(c1ccccc1)c1ccc(C(F)(F)F)cc1 (stereo not drawn) [Compound 5q, 2-(((phenyl(4-(trifluoromethyl)phenyl)methyl)sulfinyl)methyl)thiophene] | 17 ± 2 | > 50 | > 50 | –
[O-][S+](Cc1cccs1)C(c1ccccc1)c1ccccc1I (stereo not drawn) [Compound 6i, 2-((((2-iodophenyl)(phenyl)methyl)sulfinyl)methyl)thiophene] | 20.3 ± 0.6 | – | – | IC50 [2, 8]: > 50 µM; IC50 [3, 9]: > 50 µM
COc1ccc([C@@H](c2ccccc2)[S@@+]([O-])Cc2cccs2)cc1 [Compound 7t, (S,R)-2-((((4-methoxyphenyl)(phenyl)methyl)sulfinyl)methyl)thiophene] | 15 ± 2 | > 50 | > 50 | –
[O-][S@+](Cc1cccs1)[C@H](c1ccccc1)c1ccc(Cl)cc1 [Compound 8f, (R,R)-2-((((4-chlorophenyl)(phenyl)methyl)sulfinyl)methyl)thiophene] | 4.9 ± 0.6 | > 50 | > 50 | –
[O-][S@@+](Cc1cccs1)[C@@H](c1ccccc1)c1ccc(I)cc1 [Compound 7k, (S,S)-2-((((4-iodophenyl)(phenyl)methyl)sulfinyl)methyl)thiophene] | > 50 | > 50 | > 50 | –
COc1cccc(C(c2ccccc2)[S+]([O-])Cc2cccs2)c1 (stereo not drawn) [Compound 7s, 2-((((3-methoxyphenyl)(phenyl)methyl)sulfinyl)methyl)thiophene] | 1.56 ± 0.24 | – | > 50 | IC50 [2, 8]: > 50 µM
[O-][S+](Cc1cccs1)C(c1ccccc1)c1cccc(C(F)(F)F)c1 (stereo not drawn) [Compound 8p, 2-(((phenyl(3-(trifluoromethyl)phenyl)methyl)sulfinyl)methyl)thiophene] | 6.2 ± 0.6 | – | 31 ± 5 | IC50 [2, 8]: > 50 µM
[O-][S@@+](Cc1cccs1)[C@H](c1ccccc1)c1cccc(Br)c1 [Compound 5h, (S,R)-2-((((3-bromophenyl)(phenyl)methyl)sulfinyl)methyl)thiophene] | 1.8 ± 0.4 | – | > 50 | IC50 [2]: > 50 µM
[O-][S@@+](Cc1cccs1)[C@H](c1ccccc1)c1cccc(Cl)c1 [Compound 5e, (S,R)-2-((((3-chlorophenyl)(phenyl)methyl)sulfinyl)methyl)thiophene] | 3 ± 0.1 | > 50 | > 50 | –
[O-][S@+](Cc1cccs1)[C@@H](c1ccccc1)c1ccc(I)cc1 [Compound 6k, (R,S)-2-((((4-iodophenyl)(phenyl)methyl)sulfinyl)methyl)thiophene] | 1.1 ± 0.3 | > 50 | 3.8 ± 0.5 | –
COc1ccccc1[C@H](c1ccccc1)[S@@+]([O-])Cc1cccs1 [Compound 6r, (S,S)-2-((((2-methoxyphenyl)(phenyl)methyl)sulfinyl)methyl)thiophene] | > 50 | > 50 | > 50 | –
[O-][S+](Cc1cccs1)C(c1ccccc1)c1ccccc1C(F)(F)F (stereo not drawn) [Compound 5o, 2-(((phenyl(2-(trifluoromethyl)phenyl)methyl)sulfinyl)methyl)thiophene] | > 50 | 25 ± 1 | > 50 | –
COc1ccccc1[C@@H](c1ccccc1)[S@@+]([O-])Cc1cccs1 [Compound 7r, (S,R)-2-((((2-methoxyphenyl)(phenyl)methyl)sulfinyl)methyl)thiophene] | 1.7 ± 0.1 | > 50 | > 50 | –
[O-][S+](Cc1cccs1)C(c1ccc(F)cc1)c1ccc(Cl)cc1 (stereo not drawn) [Compound 5u, 2-((((4-chlorophenyl)(4-fluorophenyl)methyl)sulfinyl)methyl)thiophene] | 4.5 ± 1.8 | > 50 | > 50 | –
[O-][S@@+](Cc1cccs1)[C@H](c1ccccc1)c1ccccc1F [Compound 8a, (S,R)-2-((((2-fluorophenyl)(phenyl)methyl)sulfinyl)methyl)thiophene] | – | – | – | IC50 [1, 10]: 1.09 ± 0.07 µM; IC50 [2, 11]: > 50 µM; IC50 [3, 12]: > 50 µM
[O-][S@@+](Cc1cccs1)[C@H](c1ccccc1)c1ccc(I)cc1 [Compound 5k, (S,R)-2-((((4-iodophenyl)(phenyl)methyl)sulfinyl)methyl)thiophene] | 5.1 ± 0.6 | > 50 | > 50 | –
[O-][S@+](Cc1cccs1)[C@@H](c1ccccc1)c1cccc(Br)c1 [Compound 6h, (R,S)-2-((((3-bromophenyl)(phenyl)methyl)sulfinyl)methyl)thiophene] | 15 ± 1 | – | > 50 | IC50 [2]: > 50 µM
Cc1cccc([C@@H](c2ccccc2)[S@+]([O-])Cc2cccs2)c1 [Compound 8m, (R,R)-2-(((phenyl(m-tolyl)methyl)sulfinyl)methyl)thiophene] | 1.56 ± 0.25 | > 50 | > 50 | –
[O-][S+](Cc1cccs1)C(c1ccccc1)c1ccc(F)cc1 (stereo not drawn) [Compound 8c, 2-((((4-fluorophenyl)(phenyl)methyl)sulfinyl)methyl)thiophene] | – | – | – | IC50 [1, 10]: 5.2 ± 0.1 µM; IC50 [2, 11]: > 50 µM; IC50 [3, 12]: 24 ± 6 µM
[O-][S+](Cc1cccs1)C(c1ccccc1)c1cccc(C(F)(F)F)c1 (stereo not drawn) [Compound 7p, 2-(((phenyl(3-(trifluoromethyl)phenyl)methyl)sulfinyl)methyl)thiophene] | 10 ± 1 | – | > 50 | IC50 [2, 8]: > 50 µM
[O-][S+](Cc1cccs1)C(c1ccccc1)c1ccccc1I (stereo not drawn) [Compound 8i, 2-((((2-iodophenyl)(phenyl)methyl)sulfinyl)methyl)thiophene] | 9.6 ± 1.2 | – | – | IC50 [2, 8]: > 50 µM; IC50 [3, 9]: > 50 µM
[O-][S+](Cc1cccs1)C(c1ccccc1)c1ccccc1Br (stereo not drawn) [Compound 8g, 2-((((2-bromophenyl)(phenyl)methyl)sulfinyl)methyl)thiophene] | 5.06 ± 0.31 | – | – | IC50 [2, 8]: > 50 µM; IC50 [3, 9]: > 50 µM
[O-][S+](Cc1cccs1)C(c1ccccc1)c1ccccc1C(F)(F)F (stereo not drawn) [Compound 7o, 2-(((phenyl(2-(trifluoromethyl)phenyl)methyl)sulfinyl)methyl)thiophene] | > 50 | > 50 | – | IC50 [3, 9]: > 50 µM
